Experimental data from patent US8618114B2 (priority 2008, dated 2013).

How the values were obtained:
mice = assay: Passive avoidance in the shuttle chamber, amnesia caused by MK-801, mice; assay type: in vivo, mouse; conditions: MK-801 0.1 mg/kg i.p., compounds injected 30 minutes before the test, FIG. 11-13
Protocol: (§1) A shuttle chamber (Ugo Basile, Italy) that consisted of two sections was used. One section was white and lightened, the other one was dark. The sections were connected through a hole which could be overlapped by automatic vertical door. The floor of the dark section was made of transverse metal bars on which DC current impulses could be fed.
(§2) On the first day of testing 30 minutes before training the animals were injected intraperitoneally with Scopolamine which causes disturbance of training (memory loss). The animals of the trial group were additionally administered with one of the tested compounds. The animals of the control group were injected with physiological solution. Each group consisted of 8 animals. The animals were placed in the light section, and latent period of the first entry into the dark chamber was registered. Then vertical door was closed and the animal was punished by 0.6 mA DC current for 3 seconds. After that the animal was taken back to its home cage. In 22-24 hours the same animal was placed again in the light section of the shuttle chamber and latent period of its first entry into the dark section, the total time of its stay in the light section and the number of entries into the dark section were registered. Each monitoring lasted for 5 minutes.
14.2.1. Passive Avoidance of mice in the Shuttle Chamber. The test was carried out as in example 14.1.1. […]

male mice of BALB/c line [1] = assay: Passive avoidance in the shuttle chamber, Scopolamine amnesia model, mice; assay type: in vivo, mouse; conditions: compounds injected 30 minutes before the test, read 24 hours after training, FIG. 4-6
Protocol: (§3) 14.1.1. Passive Avoidance of mice in the Shuttle Chamber. The experiments were carried out in aged male mice of BALB/c line weighing 20-24 g or male rats weighing 200-250 g.
as §1
as §2, with “In 22-24 hours the same animal was placed again in the light section of the shuttle chamber and latent period of its first entry into the dark section, the total time of its stay in the light section and the number of entries into the dark section were registered. Each monitoring lasted for 5 minutes.” left out

5-HT6 receptor [2] = target: T1, 5-HT6 receptor (Homo sapiens (Human), UniProt P50406); assay: functional assay for serotonin 5-HT6 receptor inhibition (serotonin-induced intracellular cAMP, LANCE cAMP kit, HEK 293 cells); assay type: cell-based; conditions: HEK 293 cells with expressed 5-HT6 receptor; reduction of serotonin-induced intracellular cAMP
Protocol: Determination of antagonistic activity of compounds of the general formula 1 towards 5-HT6 receptors. Compounds of the general formula 1 were tested for their ability to prevent 5-HT6 receptors activation by serotonin. HEK 293 cells (cells of human embryo's kidney) with artificially expressed 5-HT6 receptor, activation of which by serotonin leads to increasing the concentration of intracellular cAMP, were used. The level of intracellular cAMP was determined using reagent kit LANCE cAMP (PerkinElmer) according to the method described by the manufacturer of the kit [http://las.perkinelmer.com/content/Manuals/MAN_LANCEcAMP384KitUser.pdf]. Effectiveness of the compounds was estimated by their ability to reduce the level of intracellular cAMP induced by serotonin. Table 4 presents IC50 values for the compounds of general formula 1 in the setting of functional assay for serotonin 5-HT6 receptor inhibition. The data given testify their moderate or high antagonistic activity.

male rats = assay: Passive avoidance in the shuttle chamber, Scopolamine amnesia model, rats; assay type: in vivo, rat; conditions: compounds injected 60 minutes before the test, read 24 hours after training, FIG. 1-3
Protocol: as §3, §1
as §2, with “In 22-24 hours the same animal was placed again in the light section of the shuttle chamber and latent period of its first entry into the dark section, the total time of its stay in the light section and the number of entries into the dark section were registered. Each monitoring lasted for 5 minutes.” left out

5-HT6 receptor [3] = target: T1, 5-HT6 receptor; assay: competitive radioligand binding ([3H] Lysergic acid diethylamide) to serotonin 5-HT6 receptors, HeLa cell membranes; conditions: read-out: IC50, competitive assay of serotonin 5-HT6 receptor inhibition; displacement of 1.5 nM [3H] Lysergic acid diethylamide, 120 min at 37° C.
Protocol: Determination of activity of the compounds of the general formula 1 in the setting of competitive binding to serotonin 5-HT6 receptors.
Screening of the disclosed compounds for their potential ability to interact with serotonin 5-HT6 receptors was carried out by method of radioligand binding. For this purpose membrane species were prepared from expressing recombinant human 5-HT6 receptors HeLa cells by means of their homogenization in glass homogenizer with subsequent separation of plasmatic membranes from cell nucli, mitochondria's and cell wreckages by differential centrifugation. Determination of tested compounds binding to 5-HT6 receptors was carried out according to the method described in [Monsma F J Jr, Shen Y, Ward R P, Hamblin M W and Sibley D R, Cloning and expression of a novel serotonin receptor with high affinity for tricyclic psychotropic drugs. […] After incubation the samples were filtered in vacuo on glass-microfiber filters G/F (Millipor, USA), filters were washed three times with cold solution of the medium and radioactivity was measured by scintillation counter MicroBeta 340 (PerkinElmer, USA). Nonspecific binding which made up 30% of overall binding was determined by incubation of membrane preparations with radioligand in the presence of 5 μM Serotonin (5-HT). Methiothepin was used as positive control. Binding of the tested compounds to the receptor was determined by their ability to displace the radioligand and expressed in percent of displacement. The percent of displacement was calculated according to the following equation:
[formula] wherein: TA—was overall radioactivity in the presence of radioligand only, CA—was radioactivity in the presence of radioligand and tested compound and NA—was radioactivity in the presence of radioligand and Serotonin (5 μM).

male mice of SHK line = assay: Novel object recognition test, Scopolamine amnesia model; assay type: in vivo, mouse; conditions: Scopolamine 1 mg/kg i.p.; compounds i.p. 60 minutes before training; FIG. 7
Protocol: 14.1.2. Novel object recognition test. The test was carried out in aged male mice of SHK line. […] A mouse was placed into the central chamber and allowed to explore the maze. The floor was cleaned after each animal. The sequence of chamber entries and duration of visits were registered by the observer. The test was ended after 13 entries into the dead-end chambers. Criterion for entry was a location of all animal's paws inside the chamber at the same time.
During the training the animal was placed in the maze with one equiform bowl in each side chamber. In the course of testing (one hour after training) two opposite standing bowls were replaced by identical flasks, and the animal was allowed to explore the maze. The time spent by the animal in each side chamber was registered during the periods of training and testing. Index of novel object recognition was calculated as the ratio of time spent by the animal in the side chambers with novel objects to the total time spent by it in all side chambers.

male mice of BALB/c line [4] = assay: Porsolt's Forced Swim Test; assay type: in vivo, mouse; conditions: i.p. for 4 days subchronically; FIG. 18
Protocol: 17.1. Mice Behavior in Porsolt's Forced Swim Test. Expression of behavioral despair was offered to use as a model for investigation of antidepressant activity in Porsolt's test (1977, 1978). That is, the behavior of a mouse or rat in a closed basin, from which the animal can not get out, cheracterizes the level of its despair which could be reduced by means of antidepressant intake.
Male mice of BALB/c line weighing about 20-30 g were used in the test. The animals were placed for 15 minutes in the basin (of 300 mm height, 480 mm diameter) filled with water to 70% of its volume at 25° C. In 3-5 minutes swimming activity began to decrease and change by phases of movement and immobility. […] Data for the last 5 minutes of the test were taken for the analysis. Automated computerized detection of motion with videosystem and Any-maze program were used in the test. The tested compounds 1.2.7(1) and 1.2.22(18) were injected intraperitonelly for 4 days subchronically.

Mice of SHK line = assay: Prepulse inhibition of the startle response in mice (Apomorphine model); assay type: in vivo, mouse; conditions: 1 mg/kg i.p. 60 minutes before the test; FIG. 17
Protocol: Mice of SHK line weighing about 24-30 g were used in the test. The experiments were carried out during the light period of animal's diurnal. Apomorphine hydrochloride and Haloperidol were received from Sigma Chemicals Company, (USA). Apomorphine hydrochloride was dissolved in 0.1% solution of ascorbic acid prepared with sterilized water; it was introduced subcutaneously 15 minutes before the test. Haloperidol was dissolved in sterilized water using emulsifier Twin 80, it was introduced intraperitoneally 60 minutes before the test. Compounds 1.2.22(1), 1.2.22(18), 1.2.7(1) were dissolved in sterilized water and introduced intraperitoneally 60 minutes before the test. The injection volume was 10 ml/kg. 0.1%. Solution of ascorbic acid, prepared with sterilized water and Twin 80, was injected to control group of animals.
The test instrument consisted of a chamber made of transparent plexiglass (manufacturer—Columbia Instruments Company, USA) and placed on the platform; the latter was lodged inside the sound insulating chamber. A high frequency sound column transmitting acoustic stimuluses was located 2 cm away from the platform. […] The level of background noise made up 65 dB. Each animal received 4 stimuli of single testing (pulse) stimulus of 50 ms duration and 105 dB or prepulsory stimulus (pre-pulse) of 20 ms duration and 85 dB, after which in 30 ms pulse stimulus of 50 ms duration and 105 dB followed. Time interval between repeated pulse or prepulse in combination with pulse stimuli made up 10 s. Inhibition of the startle in reply to prepulse-plus-pulse stimulus was calculated in percentage towards amplitude of startle in response to isolated pulse stimulus.

male mice of BALB/c line [5] = assay: Tail suspension test; assay type: in vivo, mouse; conditions: i.p. during 4 days; FIG. 19
From the text: 17.2. Mice behavior in tail suspension test. Tail suspension test was described by Steri et al. (1985) as a convenient method for investigation of potential antidepressants. It is supposed that forced immobility in rodents could be used as a model for investigation of depressive disorders at humans. Clinically effective antidepressants lower mice immobility which follows negative attempts to become free when their tails are fixed.
Male mice of BALB/c line weighing about 20-30 g were used in the test. The animals were suspended by tail with a sticky tape on the holder over a horizontal surface at a height of about 40 cm, and the total duration of complete immobility episodes was registered in the course of 3 minutes. […] Automated computerized detection of motion with videosystem and Any-maze program were used in the test. The tested compounds 1.2.7(1) and 1.2.22(18) were administered intraperitoneally during 4 days. Reference substances (Fluoxetine, Desipramine) were injected intraperitoneally 15 minutes before the beginning of the test.

rats = assay: Passive avoidance in the shuttle chamber, amnesia caused by MK-801, rats; assay type: in vivo, rat; conditions: MK-801 0.1 mg/kg i.p., compounds injected 60 minutes before the test, FIG. 8-10

T1 sequence (P50406 whole entry): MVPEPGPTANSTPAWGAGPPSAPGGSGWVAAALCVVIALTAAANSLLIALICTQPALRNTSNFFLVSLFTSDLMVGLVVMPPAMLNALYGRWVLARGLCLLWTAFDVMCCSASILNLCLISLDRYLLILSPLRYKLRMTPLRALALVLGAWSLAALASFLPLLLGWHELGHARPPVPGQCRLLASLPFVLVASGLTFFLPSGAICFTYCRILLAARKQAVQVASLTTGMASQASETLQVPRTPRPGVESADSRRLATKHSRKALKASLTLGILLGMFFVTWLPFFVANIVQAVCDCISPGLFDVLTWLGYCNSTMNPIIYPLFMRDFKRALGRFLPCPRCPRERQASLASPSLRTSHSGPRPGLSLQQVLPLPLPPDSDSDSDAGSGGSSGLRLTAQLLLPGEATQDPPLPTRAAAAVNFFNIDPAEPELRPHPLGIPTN

IC50 (5-HT6 receptor [2])	IC50 (5-HT6 receptor [3])	Structure (SMILES)	effect on amnesia caused by MK-801 (latent period, light arm stay, dark arm entries) (mice)	effect on amnesia caused by Scopolamine (latent period, light arm stay, dark arm entries) (male mice of BALB/c line [1])	effect on amnesia caused by Scopolamine (latent period, light arm stay, dark arm entries) (male rats)	prevention of Scopolamine-disturbed novel object recognition (male mice of SHK line)	antidepressant activity, immobility during the final 5 minutes in Porsolt's test (male mice of BALB/c line [4])	effect on Apomorphine-disturbed prepulse inhibition of startle (Mice of SHK line)	antidepressant activity, immobility in tail suspension test (male mice of BALB/c line [5])	effect on amnesia caused by MK-801 (latent period, light arm stay, dark arm entries) (rats)
		Cc1cc(C)n2nc([S+](C)[O-])c(S(=O)(=O)c3ccccc3)c2n1 (stereo not drawn) [1(1)]	decrease amnesia caused by MK-801	decrease amnesia						
0.177 µM		CSc1nn2c(C)cc(CO)nc2c1S(=O)(=O)c1ccccc1 [1.1.7(1), 5-(hydroxymethyl)-7-methyl-2-methylsulfanyl-3-phenylsulfonyl-pyrazolo[1,5-a]pyrimidine]	decrease amnesia caused by MK-801							
0.019 µM	0.00088 µM	CNc1nn2c(C)cc(CO)nc2c1S(=O)(=O)c1ccccc1 [1.2.7(1), 5-(hydroxymethyl)-7-methyl-2-methylamino-3-phenylsulfonyl-pyrazolo[1,5-a]pyrimidine]			decrease amnesia	prevent memory impairment caused by Scopolamine	exhibits antidepressant activity	prevented disturbance of prepulse inhibition of startle caused by Apomorphine	antidepressant activity comparable with the activity of Fluoxetine and Desipramine	decrease amnesia caused by MK-801
